From ChEMBL document CHEMBL5214903, “Diversity-oriented synthesis as a tool to expand the chemical space of DNA-encoded libraries” (Bioorg Med Chem, 2021) come the findings set out here.

Usually Ki stands for the equilibrium dissociation constant of an inhibitor or competing ligand from its target. In general, IC50 refers to the concentration at which inhibition is half-maximal. One may read the Kd as a measure of binding affinity in units of concentration.

Assay [1] has as its target Bromodomain-containing protein 3 (Homo sapiens, UniProt Q15059). As to the kind of experiment: Binding affinity to recombinant human BRD3 bromodomain-1 (44 to 168 residues) expressed in Escherichia coli BL21 (DE3) cells assessed as inhibition constant by fluorescence polarization assay.
The target of assay [2] is Histone acetyltransferase p300 (Homo sapiens, UniProt Q09472). As to the kind of experiment: Inhibition of p300 (unknown origin) using [3H]-Ac-CoA as substrate preincubated for 15 mins followed by substrate addition and measured after 60 mins by Flashplate assay.
In assay [3] the target is E3 ubiquitin-protein ligase Mdm2 (Homo sapiens, UniProt Q00987). As to the kind of experiment: Binding affinity to MDM2 (unknown origin) assessed as dissociation constant.
Assay [4] can be described thus: Inhibition of Aurora (unknown origin). More on the design: species or system Homo sapiens.
Assay [5] deals with Transcriptional enhancer factor TEF-3 (Homo sapiens, UniProt Q15561). Put plainly: Inhibition of YAP binding to human TEAD4 by fluorescence polarization assay. (In general: Fluorescence polarisation rises when a labelled molecule tumbles more slowly, as on binding a larger partner.)
Transcriptional enhancer factor TEF-3, sequence (Q15561 whole entry): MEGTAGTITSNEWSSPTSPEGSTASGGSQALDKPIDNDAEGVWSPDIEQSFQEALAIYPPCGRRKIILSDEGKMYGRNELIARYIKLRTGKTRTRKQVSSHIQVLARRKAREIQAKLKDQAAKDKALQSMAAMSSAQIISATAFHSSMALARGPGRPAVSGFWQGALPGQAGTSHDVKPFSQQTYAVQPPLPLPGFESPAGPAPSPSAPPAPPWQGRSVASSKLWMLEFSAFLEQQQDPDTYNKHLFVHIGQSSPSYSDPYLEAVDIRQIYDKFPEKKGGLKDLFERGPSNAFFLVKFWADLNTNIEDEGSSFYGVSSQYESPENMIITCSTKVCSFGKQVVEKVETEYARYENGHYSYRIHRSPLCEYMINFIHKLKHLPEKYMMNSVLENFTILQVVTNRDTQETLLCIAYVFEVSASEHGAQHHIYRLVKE

Histone acetyltransferase p300, sequence (Q09472 whole entry): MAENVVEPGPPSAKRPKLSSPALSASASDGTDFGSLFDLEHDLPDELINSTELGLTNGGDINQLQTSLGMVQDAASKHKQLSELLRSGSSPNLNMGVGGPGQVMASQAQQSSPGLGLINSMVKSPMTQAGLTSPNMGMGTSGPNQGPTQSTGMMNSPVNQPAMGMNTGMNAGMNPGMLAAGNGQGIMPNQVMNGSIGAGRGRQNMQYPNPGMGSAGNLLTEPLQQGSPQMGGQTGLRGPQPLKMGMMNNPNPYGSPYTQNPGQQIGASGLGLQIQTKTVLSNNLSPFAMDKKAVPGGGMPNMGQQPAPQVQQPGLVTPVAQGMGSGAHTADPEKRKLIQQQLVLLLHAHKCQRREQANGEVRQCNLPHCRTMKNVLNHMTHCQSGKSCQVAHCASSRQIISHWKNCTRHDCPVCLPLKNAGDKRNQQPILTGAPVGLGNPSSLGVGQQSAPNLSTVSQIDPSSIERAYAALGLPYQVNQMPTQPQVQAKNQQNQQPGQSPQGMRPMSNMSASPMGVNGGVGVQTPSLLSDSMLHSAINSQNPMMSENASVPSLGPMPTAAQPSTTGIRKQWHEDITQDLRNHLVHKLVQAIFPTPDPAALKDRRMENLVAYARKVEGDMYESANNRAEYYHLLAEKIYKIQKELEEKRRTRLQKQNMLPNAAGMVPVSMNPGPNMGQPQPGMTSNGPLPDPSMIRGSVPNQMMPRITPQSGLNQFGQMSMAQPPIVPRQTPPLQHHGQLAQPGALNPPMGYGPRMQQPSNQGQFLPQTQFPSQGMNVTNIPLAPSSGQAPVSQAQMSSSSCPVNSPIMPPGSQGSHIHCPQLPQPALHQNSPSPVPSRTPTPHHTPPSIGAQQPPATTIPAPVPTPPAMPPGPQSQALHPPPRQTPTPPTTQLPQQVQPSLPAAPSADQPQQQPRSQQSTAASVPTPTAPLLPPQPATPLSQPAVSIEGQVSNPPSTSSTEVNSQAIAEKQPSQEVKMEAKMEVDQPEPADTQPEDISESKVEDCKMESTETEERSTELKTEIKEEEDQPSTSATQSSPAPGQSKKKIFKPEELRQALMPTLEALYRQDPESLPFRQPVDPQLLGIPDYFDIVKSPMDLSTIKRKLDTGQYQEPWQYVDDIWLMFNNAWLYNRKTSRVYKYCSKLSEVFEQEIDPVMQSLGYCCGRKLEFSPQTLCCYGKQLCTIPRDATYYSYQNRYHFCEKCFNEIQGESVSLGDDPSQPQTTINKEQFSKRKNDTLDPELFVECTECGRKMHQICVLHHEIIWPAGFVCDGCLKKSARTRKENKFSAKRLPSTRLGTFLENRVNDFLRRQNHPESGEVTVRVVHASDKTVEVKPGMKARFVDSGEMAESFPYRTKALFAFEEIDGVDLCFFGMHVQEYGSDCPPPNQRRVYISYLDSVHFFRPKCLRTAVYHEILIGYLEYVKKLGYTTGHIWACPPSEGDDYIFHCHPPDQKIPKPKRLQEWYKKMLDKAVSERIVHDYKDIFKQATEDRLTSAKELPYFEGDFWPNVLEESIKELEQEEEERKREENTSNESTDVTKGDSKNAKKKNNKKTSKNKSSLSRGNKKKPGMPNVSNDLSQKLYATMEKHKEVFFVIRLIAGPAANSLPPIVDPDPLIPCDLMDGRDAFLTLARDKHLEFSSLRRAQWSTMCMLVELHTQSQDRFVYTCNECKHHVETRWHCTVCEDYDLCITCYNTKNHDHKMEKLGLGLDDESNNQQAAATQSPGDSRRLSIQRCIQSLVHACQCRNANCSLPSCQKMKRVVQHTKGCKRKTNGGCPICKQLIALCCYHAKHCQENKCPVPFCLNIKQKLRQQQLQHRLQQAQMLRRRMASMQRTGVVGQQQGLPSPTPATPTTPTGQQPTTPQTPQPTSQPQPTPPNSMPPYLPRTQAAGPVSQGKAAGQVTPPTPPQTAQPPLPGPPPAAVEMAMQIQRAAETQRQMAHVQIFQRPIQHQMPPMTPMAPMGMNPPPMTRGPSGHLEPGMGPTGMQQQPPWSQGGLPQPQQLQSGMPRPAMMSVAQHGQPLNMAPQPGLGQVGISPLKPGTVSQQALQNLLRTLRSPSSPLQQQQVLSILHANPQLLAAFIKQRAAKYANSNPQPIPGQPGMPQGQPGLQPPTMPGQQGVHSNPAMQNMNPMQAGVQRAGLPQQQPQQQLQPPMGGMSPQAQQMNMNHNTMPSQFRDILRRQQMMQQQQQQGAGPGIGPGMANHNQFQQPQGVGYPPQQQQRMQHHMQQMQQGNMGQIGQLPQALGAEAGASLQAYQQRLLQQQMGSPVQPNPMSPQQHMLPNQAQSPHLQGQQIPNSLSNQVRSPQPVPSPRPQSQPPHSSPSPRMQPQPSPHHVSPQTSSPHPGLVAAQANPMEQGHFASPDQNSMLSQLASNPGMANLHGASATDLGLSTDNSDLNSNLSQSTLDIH
E3 ubiquitin-protein ligase Mdm2, sequence (Q00987 whole entry): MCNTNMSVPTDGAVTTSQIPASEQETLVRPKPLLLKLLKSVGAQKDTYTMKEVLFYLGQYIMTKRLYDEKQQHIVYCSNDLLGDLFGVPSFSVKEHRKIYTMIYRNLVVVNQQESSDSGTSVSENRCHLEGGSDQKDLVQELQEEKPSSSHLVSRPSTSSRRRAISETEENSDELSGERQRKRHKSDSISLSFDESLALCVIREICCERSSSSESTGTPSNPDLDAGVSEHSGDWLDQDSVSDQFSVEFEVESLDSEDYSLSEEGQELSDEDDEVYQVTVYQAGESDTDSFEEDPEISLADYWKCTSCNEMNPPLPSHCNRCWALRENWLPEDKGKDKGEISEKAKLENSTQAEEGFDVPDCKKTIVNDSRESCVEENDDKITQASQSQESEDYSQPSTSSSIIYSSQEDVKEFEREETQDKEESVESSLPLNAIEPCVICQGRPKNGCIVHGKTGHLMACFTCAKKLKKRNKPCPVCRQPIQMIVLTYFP
Bromodomain-containing protein 3, sequence (Q15059 whole entry, the tested form may be a part): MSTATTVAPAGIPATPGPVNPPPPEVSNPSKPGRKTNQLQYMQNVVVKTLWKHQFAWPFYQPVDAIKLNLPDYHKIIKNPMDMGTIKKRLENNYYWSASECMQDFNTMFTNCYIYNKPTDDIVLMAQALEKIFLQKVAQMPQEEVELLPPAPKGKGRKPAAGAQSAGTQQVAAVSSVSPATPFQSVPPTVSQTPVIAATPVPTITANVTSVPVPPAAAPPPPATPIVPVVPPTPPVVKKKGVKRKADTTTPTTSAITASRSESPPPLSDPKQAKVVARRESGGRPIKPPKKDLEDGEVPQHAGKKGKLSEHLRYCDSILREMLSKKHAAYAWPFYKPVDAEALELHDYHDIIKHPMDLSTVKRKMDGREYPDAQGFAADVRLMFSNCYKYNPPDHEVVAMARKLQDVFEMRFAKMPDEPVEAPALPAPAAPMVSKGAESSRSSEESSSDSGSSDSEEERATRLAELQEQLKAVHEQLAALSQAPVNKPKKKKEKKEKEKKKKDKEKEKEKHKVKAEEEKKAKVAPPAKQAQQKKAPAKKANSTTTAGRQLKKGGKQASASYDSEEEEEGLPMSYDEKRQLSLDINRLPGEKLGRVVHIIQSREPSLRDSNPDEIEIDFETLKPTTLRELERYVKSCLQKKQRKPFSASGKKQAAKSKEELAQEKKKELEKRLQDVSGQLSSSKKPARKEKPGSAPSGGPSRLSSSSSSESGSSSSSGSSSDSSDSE

On to `COc1cc(/C=C/C(=O)Nc2ccc3c(c2)C2(C(=O)N3)C(C(=O)OC(C)(C)C)CC3CSCN32)cc(OC)c1OC` (stereo not given), for which, in assay [1], the Ki came out at 0.131 µM.
In assay [2], `COC(=O)C1CC2CSCN2C12C(=O)Nc1ccc(NCc3ccc([N+](=O)[O-])cc3OCC(=O)O)cc12` (stereo not given) yielded an IC50 of 45 µM.
Take `Cc1ccc(NC(=O)Cn2cc(CN(C(=O)CCC(=O)OC(C)(C)C)C(C(=O)NC3CCCCC3)c3c[nH]c4cc(Cl)ccc34)nn2)c(C)c1` (stereo not given): the Kd in assay [3] was found to be 33 µM.
The compound `CC(C)(C)OC(=O)C1CC2CSCN2C12C(=O)Nc1cc(-c3ccc4c(c3)CC(=O)N4)ccc12` (stereo not given) showed an IC50 in assay [4] of 45 µM.
On to `Cc1ccn2cc(Cn3cc(CN(C(=O)CCC(=O)OC(C)(C)C)C(C(=O)NC4C[C@@H]5CC[C@]4(C)C5(C)C)c4c[nH]c5cc(Cl)ccc45)nn3)nc2c1` (stereo not given in full), for which the 50% inhibitory concentration (IC50) in assay [5] amounted to 0.51 µM.
